Assay results reported in US12173137B2, “Functionalized high-oleic soybean oil wax and emulsion for post-harvest treatment of fresh fruit” (Iowa State University Research Foundation, Inc., priority 2020, dated 2024).
Marks after values point to notes of the source that are not given here.

What was measured:
Assay type in all cases: physicochemical
[1] = Hardness of wax materials (penetrometer, ASTM D1321); details: reciprocal of needle penetration distance, room temperature
Description: (§1) Hardness, defined as a measure of resistance to local deformation, was measured using a H-1200 Universal Penetrometer (Humboldt Mfg. Co., Raleigh, NC) following ASTM D1321 standard. Ten grams of molten material were cast in a 5 cm diameter by 3 cm tall hollow polyvinyl chloride plastic mold. Material was allowed to fully cool and equilibrate to room temperature for at least 6 hours prior to testing. The distance traveled by penetrometer needle (mm) into the wax disc was recorded as the hardness (mm^−1) after taking the reciprocal value. Cohesiveness, defined as the strength of a material due to interatomic or intermolecular forces, was measured as per previous methodology (Fei et al., “Synthesis and Characterization of Soybean Oil-Based Waxes and Their Application as Paraffin Substitute for Corrugated Coating,” J. Ind. Eng. Chem. 58:113-122 (2018), which is hereby incorporated by reference in its entirety) by a three-point bend test using a TA.XTPlus Texture Analyzer (Stable Micro Systems, So. Hamilton, MA) with a TA-92N probe on a 4 mm-thick cast wax sample, made by casting 2.2-2.8 g of molten material in a small hexagonal weighing boat, and allowing samples to cool to r.t. for at least 2 hours. Hexagonal samples were then sanded down flat to a uniform mass with a fine grit sanding sponge taking care to remove concave and convex regions. Test was performed by placing sample between two vertical support bars 12 mm apart and driving the blunt blade normal to the sample at 0.5 mm/s to a trigger distance of 3 mm. The area under curve was acquired from a distance at 0 mm to the peak positive force, and the average of three tests for each material was recorded as the cohesiveness (g mm) of the material.

[2] = Cohesiveness of wax materials (three-point bend test); details: area under curve to peak force, 4 mm-thick cast sample
Description: as §1

[3] = Differential scanning calorimetry of wax materials; details: for Relative Crystallinity: 290 J/g for a 100% crystalline material; for Enthalpy of Melting: DSC, heating to 100° C. at 10° C./min
Description: Melting profile of wax materials was analyzed with a DSC 250 Discovery (TA Instruments, New Castle, Del.) calorimeter using the methodology by Donhowe and Fennema (1993). Wax samples (approximately 10 mg) were first heated to 100° C. at a rate of 200° C./min, held for 3 min, cooled to 25° C. at a rate of 20° C./min and equilibrated for 3 min. Actual test ramp was then performed by heating to 100° C. at a rate of 10° C./min. Melting point ranges were calculated from the average of three samples from each material.

| Molecule | Hardness [1] | Cohesiveness [2] | Relative Crystallinity [3] | Enthalpy of Melting [3] |
| --- | --- | --- | --- | --- |
| Triacylglyceride of Regioisomeric Hydroxyoctadecanoic Acid [Compound 3] | 0.68 ± 0.05 mm^−1 | 113 ± 13 g mm | 12.9 ± 1.5^ef % | 37.3 ± 4.3 J/g |
| CCCCCCC(=O)CCCCCCCCCCC(=O)O [Compound 7, 12-Oxooctadecanoic Acid] | 0.63 ± 0.08 mm^−1 | 360 ± 34 g mm | 42.8 ± 10.1% | 124.3 ± 29.4 J/g |
| Mixture of 9-Hydroxyoctadecanoic (4a) and 10-Hydroxyoctadecanoic Acid (4b) [Compound 4a-b] | 0.30 ± 0.02^e mm^−1 | 95 ± 1 g mm | 6.3 ± 0.4^f % | 18.3 ± 0.1 J/g |
| CCCCCC[C@@H](O)CCCCCCCCCCC(=O)O [Compound 6, (R)-12-hydroxyoctadecanoic acid, reference compound] | 2.22 ± 0.04^c mm^−1 | 1443 ± 30^c g mm | 51.2 ± 1.0^ab % | 148.4 ± 3.1 J/g |
| CCCCCCC(=O)CCCCCCCCCCC(=O)OCC(COC(=O)CCCCCCCCCCC(=O)CCCCCC)OC(=O)CCCCCCCCCCC(=O)CCCCCC [Compound 8, Propane-1,2,3-triyl tris(12-oxooctadecanoate)] | 0.50 ± 0.09 mm^−1 | 203 ± 49 g mm | 43.7 ± 0.7^ % | 126.8 ± 2.0 J/g |
